This assay concerns HL-60. The experiment in a line: In vitro inhibitory activity against phospholipase D (PLD) activation in HL-60 cells by phospholipase D assay. The format is cell-based. The following applies: Homo sapiens.

The record followed here is ChEMBL document CHEMBL1127761, “Two new phospholipase d inhibitors, sch 49211 and sch 49212, produced by the fungus nattrasia mangirferae” (Bioorg Med Chem Lett, 1994).

For orientation: IC50 means the concentration that gives 50% inhibition. A low value points to higher potency. `O=C1C(O)=CC2(Oc3cccc4cccc(c34)O2)[C@@]23O[C@@]12[C@@H](O)CC[C@H]3O`: the IC50 was determined as 12 µM. This counts as double-digit micromolar. For `O=C1C(O)=CC2(Oc3cccc4cccc(c34)O2)[C@@]23O[C@@]12[C@@H](O)C=C[C@H]3O` the value was 11 µM.
